Measured values from PMC7491124, “Studies on sugar transporter CRT1 reveal new characteristics that are critical for cellulase induction in Trichoderma reesei” (Biotechnology for Biofuels, 2020).

How the values were obtained:
Type in all cases: cell-based
CRT1-RUT-C30 [1] = target: T1, CRT1-RUT-C30 (Trichoderma reesei, UniProt G0RGH7); assay: radiolabelled sugar uptake in yeast; details: labelled compound; zero-trans uptake, 100 mM potassium phosphate pH 6.5, 28 °C
T1 construct: gene TRIREDRAFT_3405; full-length RUT-C30 version with longer N-terminus; codon-optimized synthetic gene, PGK1 promoter, centromeric plasmid in S. cerevisiae co-expressing N. crassa GH1-1

CDT-2 = target: T2, CDT-2 (Neurospora crassa, UniProt Q7SD12); assay: radiolabelled lactose uptake in yeast, […] min; details: labelled compound; 5 mM lactose, pH 6.5, 28 °C
T2 construct: full-length; PGK1 promoter, centromeric plasmid in S. cerevisiae co-expressing N. crassa GH1-1
T2 sequence (Q7SD12 1-525): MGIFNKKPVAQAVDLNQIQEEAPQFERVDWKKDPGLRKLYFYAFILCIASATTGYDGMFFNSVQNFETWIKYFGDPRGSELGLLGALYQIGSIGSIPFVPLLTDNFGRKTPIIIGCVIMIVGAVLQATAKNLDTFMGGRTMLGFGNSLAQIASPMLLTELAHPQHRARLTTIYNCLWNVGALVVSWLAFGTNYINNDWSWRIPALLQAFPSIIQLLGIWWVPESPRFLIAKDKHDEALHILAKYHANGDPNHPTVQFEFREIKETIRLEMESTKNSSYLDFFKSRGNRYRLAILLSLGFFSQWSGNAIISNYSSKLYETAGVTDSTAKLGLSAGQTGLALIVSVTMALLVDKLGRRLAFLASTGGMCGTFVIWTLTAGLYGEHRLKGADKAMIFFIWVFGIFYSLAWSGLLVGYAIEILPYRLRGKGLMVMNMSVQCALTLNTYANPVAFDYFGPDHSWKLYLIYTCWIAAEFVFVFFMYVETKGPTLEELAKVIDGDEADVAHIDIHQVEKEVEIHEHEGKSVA

CRT1-RUT-C30 [2] = target: T1, CRT1-RUT-C30; assay: inhibition of labelled cellobiose uptake in yeast; details: 5 mM labelled cellobiose, 25 mM inhibitor; pH 6.5, 28 °C
CDT-1 = target: T3, CDT-1 (Neurospora crassa, UniProt Q7SCU1); assay: inhibition of labelled cellobiose uptake in yeast; details: 5 mM labelled cellobiose, 25 mM inhibitor; pH 6.5, 28 °C
T3 construct: full-length; PGK1 promoter, centromeric plasmid in S. cerevisiae co-expressing N. crassa GH1-1
T3 sequence (Q7SCU1 1-579): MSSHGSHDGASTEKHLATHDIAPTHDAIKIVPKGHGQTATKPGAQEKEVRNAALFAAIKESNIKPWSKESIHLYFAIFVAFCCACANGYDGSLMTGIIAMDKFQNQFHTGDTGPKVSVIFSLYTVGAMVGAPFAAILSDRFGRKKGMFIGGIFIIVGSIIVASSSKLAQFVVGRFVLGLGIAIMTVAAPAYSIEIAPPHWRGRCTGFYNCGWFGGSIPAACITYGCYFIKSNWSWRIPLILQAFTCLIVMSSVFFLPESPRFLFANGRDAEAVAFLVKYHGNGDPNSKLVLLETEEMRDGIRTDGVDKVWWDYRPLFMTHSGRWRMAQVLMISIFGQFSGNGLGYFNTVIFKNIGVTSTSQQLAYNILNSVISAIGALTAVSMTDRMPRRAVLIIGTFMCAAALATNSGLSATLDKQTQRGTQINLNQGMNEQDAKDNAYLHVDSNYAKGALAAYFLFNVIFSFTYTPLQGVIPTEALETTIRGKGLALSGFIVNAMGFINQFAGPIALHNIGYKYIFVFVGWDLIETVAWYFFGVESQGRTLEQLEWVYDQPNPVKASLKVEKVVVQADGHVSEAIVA

T1 sequence (G0RGH7 entry or part of it): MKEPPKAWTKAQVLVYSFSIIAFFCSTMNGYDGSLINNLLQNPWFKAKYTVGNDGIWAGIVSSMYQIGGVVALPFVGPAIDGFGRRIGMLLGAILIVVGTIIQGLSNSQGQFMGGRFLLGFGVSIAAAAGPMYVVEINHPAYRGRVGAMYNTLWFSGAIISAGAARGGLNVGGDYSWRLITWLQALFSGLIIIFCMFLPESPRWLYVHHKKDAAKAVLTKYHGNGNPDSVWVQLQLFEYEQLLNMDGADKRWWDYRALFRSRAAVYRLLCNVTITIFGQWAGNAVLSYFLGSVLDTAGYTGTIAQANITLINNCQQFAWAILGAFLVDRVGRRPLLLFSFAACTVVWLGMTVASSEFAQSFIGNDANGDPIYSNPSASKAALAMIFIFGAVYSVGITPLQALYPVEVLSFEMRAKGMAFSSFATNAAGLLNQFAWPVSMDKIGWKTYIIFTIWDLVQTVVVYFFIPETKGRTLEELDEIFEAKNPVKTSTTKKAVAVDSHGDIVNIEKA

Km (CRT1-RUT-C30 [1]) | Structure (SMILES) | radiolabelled lactose uptake in yeast, 20 min (CDT-2) | % inhibition at 25 mM (CRT1-RUT-C30 [2]) | % inhibition at 25 mM (CDT-1)
3.1 ± 0.7 µM | OC[C@H]1O[C@@H](O[C@H]2[C@H](O)[C@@H](O)C(O)O[C@@H]2CO)[C@H](O)[C@@H](O)[C@@H]1O (some centres unmarked) [cellobiose] |  |  | 
62.9 ± 27.4 µM | OC[C@H]1O[C@@H](O[C@H]2[C@H](O)[C@@H](O)C(O)O[C@@H]2CO)[C@H](O)[C@@H](O)[C@H]1O (some centres unmarked) [lactose] | higher lactose uptake was seen for the strains which expressed CDT-1, CDT-2 or CRT1-RUT-C30 |  | 
 | OC[C@H]1O[C@@H](O[C@H]2[C@H](O)[C@@H](O)[C@H](O[C@H]3[C@H](O)[C@@H](O)C(O)O[C@@H]3CO)O[C@@H]2CO)[C@H](O)[C@@H](O)[C@@H]1O (some centres unmarked) [cellotriose] |  | it was inhibited by cellobiose and to some extent by lactose and cellotriose | it was inhibited by cellobiose and to some extent by lactose and cellotriose
